Source: patent US9675555B2, “Liposome-encapsulated bicelles and use thereof in diluted systems” (priority 2010, dated 2017)
Counter-ions that a name gives are not always drawn.

Tested on: not listed separately
Assay: Incorporation of different substances into the systems
Format: physicochemical
Settings: not given
Procedure: The incorporation was made in the step of formation of the bicelles. Depending on the hydrophilic or lypophilic character of the substance, this was added together with the lipids forming the bicelle in the chloroform step or together with the hydration water. For these preparations, the following blends: DPPC/DHPC, DMPC/DHPC and DOPC/DHPC were selected. The DOPC is dioleoylphosphatidylcholine. The work was carried out with molar rates of the concentrations of both lipids between 2 and 3.5.
The samples were submitted between 10 and 50 sonication cycles in an ultrasound bath for a period of 5 minutes and 5 minutes of freezing until they became clear.
These bicelles, together with the substances internally contained were encapsulated in liposomes in the form described in example 1 and were characterized according to the methods described in example 2.
The nistatine molecule was incorporated to the systems of the invention as described in example 3.

Row | Molecule | encapsulation within the bicelles contained within the liposomes of the invention
1 | [Fe] [iron] | efficiently encapsulated
2 | ceramides | efficiently encapsulated
3 | CNC(=O)CN(CCN(CCN(CC(=O)[O-])CC(=O)NC)CC(=O)[O-])CC(=O)[O-].[Gd+3] [gadodiamide] | efficiently encapsulated
4 | Cn1c(=O)c2c(ncn2C)n(C)c1=O [caffeine] | efficiently encapsulated
5 | O=C(O)c1ccccc1Nc1cccc(C(F)(F)F)c1 [flufenamic acid] | efficiently encapsulated
6 | CC(C)CCC[C@@H](C)[C@H]1CC[C@H]2[C@@H]3CC=C4C[C@@H](OS(=O)(=O)O)CC[C@]4(C)[C@H]3CC[C@]12C [cholesterol sulfate] | efficiently encapsulated
7 | O=C(O)Cc1ccccc1Nc1c(Cl)cccc1Cl [dichlophenac] | efficiently encapsulated

Same assay, conditions: high water content system

Row | Molecule | quantity of nistatine incorporated into the system of the invention
8 | nistatine | about 15.75 mg/ml

Tested on: Candida albicans fungus
Assay: Microbiologic activity of nistatine (MIC)
Format: cell-based
Settings: nistatine incorporated to the liposomes of the invention

Row | Molecule | minimum inhibitory concentration (MIC) [µg/mL]
9 | nistatine | 16
